In patent US8742124B2, “Amide derivatives bearing a cyclopropylaminoacarbonyl substituent useful as cytokine inhibitors” (AstraZeneca AB, priority 2003, dated 2014):

Columns and labels:
Human recombinant p38α = molecular target: T1, Human recombinant p38α (Homo sapiens, UniProt Q16539); experiment: In vitro enzyme assay, p38α kinase inhibition; type: biochemical; conditions: activated p38α, Myelin Basic Protein substrate, 33P ATP
T1 construct: c-myc (N); 6His (N); made in house; host or cells: E. coli (PET vectors)
Protocol: The ability test compounds to inhibit the enzyme p38 kinase was assessed. Activity of the test compound against each of the p38α and […] isoforms of the enzyme was determined.
Human recombinant MKK6 (GenBank Accession Number G1209672) was isolated from Image clone 45578 (Genomics, 1996, 33, 151) and utilised to produce protein in the form of a GST fusion protein in a pGEX vector using analogous procedures to those disclosed by J. Han et al., Journal of Biological Chemistry, 1996, 271, 2886-2891. p38α (GenBank Accession Number G529039) and p38β (GenBank Accession Number G1469305) were isolated by PCR amplification of human lymphoblastoid cDNA (GenBank Accession Number GM1416) and human foetal brain cDNA [synthesised from mRNA (Clontech, catalogue no. 6525-1) using a Gibco superscript cDNA synthesis kit] respectively using oligonucleotides designed for the 5′ and 3′ ends of the human p38α and p38β genes using analogous procedures to those described by J. Han et al., Biochimica et Biophysica Acta, 1995, 1265, 224-227 and Y. Jiang et al., Journal of Biological Chemistry, 1996, 271, 17920-17926.
Both p38 protein isoforms were expressed in E. coli in PET vectors. Human recombinant p38α and p38β isoforms were produced as 5′ c-myc, 6His tagged proteins. Both MKK6 and the p38 proteins were purified using standard protocols: the GST MKK6 was purified using a glutathione sepharose column and the p38 proteins were purified using nickel chelate columns.
The p38 enzymes were activated prior to use by incubation with MKK6 for 3 hours at 30° C. The unactivated E. coli-expressed MKK6 retained sufficient activity to fully activate both isoforms of p38. For p38α, the activation incubate comprised p38α (50 μl of 10 mg/ml), MKK6 (5 μl of 12 mg/ml), ‘Kinase buffer’ [550 μl; pH 7.4 buffer comprising Tris HCl (50 mM), EGTA (0.1 mM), sodium orthovanadate (0.1 mM) and (1-mercaptoethanol (0.1%)], Mg [75 μl of 100 mM Mg(OCOCH3)2] and ATP (75 μl of 1 mM). The activation incubate for p38β was similar to the above except containing […] enzyme (82 μl at 3.05 mg/ml) and 518 μl “Kinase buffer”. p38α and p38β activation incubates were either used fresh or aliquoted and stored at −80° C.
The test compound was solubilised in DMSO (10 mM) and 1:3 serial dilutions in DMSO carried out in polypropylene plates (Costar 3365). Compound dilutions were then diluted 1:10 in “Kinase buffer” and 10 μl transferred to a microtiter assay plate (Costar 3596). Control wells contained 10 μl (1:10 dilution in kinase buffer) DMSO. ‘Kinase Assay Mix’ [[…]; comprising Myelin Basic Protein (Sigma M-1891; 0.5 ml of a 6.66 mg/ml solution in “Kinase buffer”), activated p38α enzyme (3.8 μl) and ‘Kinase Buffer’ (2.55 ml)] was then added. Control wells on each plate either contained the above “Kinase Assay Mix” (n=6 replicates) or contained “Kinase Assay Mix” in which the activated p38 enzyme was replaced by Kinase buffer (n=6 replicates). ‘Labelled ATP’ was then added to all wells […]; comprising 50 μM ATP, 5 μCi ^33P ATP (Amersham International cat. no. AH9968) and 50 mM Mg(OCOCH3)2]. For p38β, 23 μl activated p38β enzyme and “Kinase buffer” (2.53 ml) were included in the “Kinase Assay Mix”. The final concentration of test compound was 2.4 μM-0.001 μM (n=2 replicates). Microtiter plates were incubated at ambient temperature (with gentle agitation) for 60 minutes and the reaction stopped by addition of 20% trichloroacetic acid (TCA) (50 μl). The precipitate protein was captured onto filter plates (PerkinElmer 6005174) using a Packard Filtermate harvester (2% TCA wash) which was then dried overnight and 25 μl MICROSCINT O (Packard O6013611) added to each well. Plates were counted on a Top Count scintillation counter. Dose response curves were generated using an in house automated data analysis package and an Origin curve fitting package.

[1] = test system: TNFα production in human whole blood; experiment: Human whole blood assay, inhibition of LPS-stimulated TNFα production; type: cell-based; conditions: LPS 10 μg/ml, 6 hours, TNFα by ELISA
Protocol: [formula] (ii) Human Whole Blood
The ability of a test compound to inhibit TNFα production was also assessed in a human whole blood assay. Human whole blood secretes TNFα when stimulated with LPS.
Heparinised (10 units/ml) human blood was obtained from volunteers. 160 μl whole blood was added to 96 well round-bottom plates (Corning 3799). Compounds were solubilised in DMSO at a concentration of 10 mM, diluted 1:100 in “culture medium” [RPMI 1640 medium (Sigma) containing 50 units/ml penicillin, 50 μg/ml streptomycin and 2 mM glutamine] and subsequently serial dilutions were made in culture medium containing 1% DMSO. 20 μl of each test concentration was added to appropriate wells (triplicate cultures)(final concentration dose range of 10 μM-0.0001 μM). 20 μl of RPMI culture medium containing 1% DMSO was added to control wells.
Plates were incubated for 30 minutes at 37° C. (humidified incubator), prior to addition of 20 μl LPS (final concentration 10 μg/ml). Culture medium was added to control wells. Six “LPS alone” and six “medium alone” controls were included on each plate. A known TNFα synthesis/secretion inhibitor was included in each test. Plates were incubated for 6 hours at 37° C. (humidified incubator). Plates were centrifuged (2000 rpm for 10 minutes) and 80 μl plasma removed and stored at −80° C. (Corning 3799 plates). TNFα levels were measured by ELISA using paired antibodies from R&D Systems (catalogue nos. MAB610 and BAF210).

T1 sequence (Q16539 whole entry): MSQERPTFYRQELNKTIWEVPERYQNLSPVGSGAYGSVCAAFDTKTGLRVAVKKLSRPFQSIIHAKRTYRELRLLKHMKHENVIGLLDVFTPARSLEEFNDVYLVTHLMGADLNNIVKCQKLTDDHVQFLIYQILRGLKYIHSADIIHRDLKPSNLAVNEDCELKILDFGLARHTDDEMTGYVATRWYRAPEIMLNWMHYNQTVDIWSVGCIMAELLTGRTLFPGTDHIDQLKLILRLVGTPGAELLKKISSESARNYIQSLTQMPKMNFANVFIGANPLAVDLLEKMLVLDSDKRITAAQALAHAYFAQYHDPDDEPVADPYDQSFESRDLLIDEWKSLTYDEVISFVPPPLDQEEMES

Row | SMILES | IC50 (Human recombinant p38α) [µM] | IC50 [1] [µM]
1 | Cc1ccc(C(=O)NC2CC2)cc1NC(=O)c1ccc(OCc2cscn2)c(F)c1 [5[ac], N-{5-[(cyclopropylamino)carbonyl]-2-methylphenyl}-3-fluoro-4-(1,3-thiazol-4-ylmethoxy)benzamide] | 0.007 | 0.07
2 | Cc1nc(COc2ccc(C(=O)Nc3cc(C(=O)NC4CC4)ccc3C)cc2F)cs1 [5[z], N-{5-[(cyclopropylamino)carbonyl]-2-methylphenyl}-3-fluoro-4-[(2-methyl-1,3-thiazol-4-yl)methoxy]benzamide] | 0.007 | 0.3
3 | Cc1ccc(C(=O)NC2CC2)cc1NC(=O)c1cnc(OCc2nccs2)nc1 [23[a], N-{5-[(cyclopropylamino)carbonyl]-2-methylphenyl}-2-(1,3-thiazol-2-ylmethoxy)pyrimidine-5-carboxamide] | 0.17 | 1.7
4 | COc1ccc(C(=O)Nc2cc(C(=O)NC3CCC3)ccc2C)cc1OC [Comparator Compound X, N-cyclobutyl-3-(3,4-dimethoxybenzamido)-4-methylbenzamide, reference compound] | 4.4 | > 10

Second part, the compound after the results:

Row | IC50 (Human recombinant p38α) [µM] | IC50 [1] [µM] | SMILES
5 | 0.01 | 0.52 | Cc1ccc(C(=O)NC2CC2)cc1NC(=O)c1ccc(OCc2cn3ccccc3n2)cc1 [5[e], N-cyclopropyl-3-{[4-(imidazo[1,2-a]pyridin-2-ylmethoxy)benzoyl]amino}-4-methylbenzamide]
6 | 0.006 | 0.14 | Cc1ccc(C(=O)NC2CC2)cc1NC(=O)c1ccc(OCc2ccccn2)c(F)c1 [5[y], N-{5-[(cyclopropylamino)carbonyl]-2-methylphenyl}-3-fluoro-4-(pyridin-2-ylmethoxy)benzamide]
7 | 0.059 | 1.8 | Cc1ccc(C(=O)NC2CC2)cc1NC(=O)c1ccc(OCc2ncccc2C)cc1 [Example 8, N-cyclopropyl-4-methyl-3-({4-[(3-methylpyridin-2-yl)methoxy]benzoyl}amino)benzamide]
